From patent publication US10000474B2, “Histone deacetylase inhibitors and uses thereof” (MUSC FOUNDATION FOR RESEARCH DEVELOPMENT, priority 2014, dated 2018)
pIC50: −log10 of the molar value. Counter-ions that a name gives are not always drawn.

Tests used:
Recombinant human HDAC11 = biological target: T1, Recombinant human HDAC11 (Homo sapiens, UniProt Q96DB2); assay: HDAC inhibitory assay, HDAC11 (Boc-Lys(Tfa)-AMC substrate); format: biochemical; conditions: test concentration not given; average of triplicate
T1 construct: purchased BPS Biosciences
T1 sequence (Q96DB2 1-347): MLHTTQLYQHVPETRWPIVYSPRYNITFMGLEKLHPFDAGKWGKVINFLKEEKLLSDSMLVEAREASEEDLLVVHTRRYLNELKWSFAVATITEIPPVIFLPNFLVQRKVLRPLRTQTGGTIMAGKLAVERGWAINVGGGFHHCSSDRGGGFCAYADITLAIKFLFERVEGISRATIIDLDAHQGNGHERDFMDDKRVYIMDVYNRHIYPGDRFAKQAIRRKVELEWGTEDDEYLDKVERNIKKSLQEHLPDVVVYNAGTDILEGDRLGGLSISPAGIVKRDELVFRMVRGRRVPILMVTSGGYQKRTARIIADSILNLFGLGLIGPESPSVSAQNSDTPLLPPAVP
Method: (§1) The compounds of Examples 1-12 and 14-16 were evaluated for their ability to act as inhibitors of human HDAC. The compound of Example 13 was not tested. Recombinant human HDAC1, HDAC2, HDAC3/NcoR2, HDAC5, HDAC6, HDAC8, HDAC9, HDAC10 and HDAC11 were purchased from BPS Biosciences. Recombinant human HDAC4 and HDAC7 were purchased from Millipore. The substrate Boc-Lys(Ac)-AMC and Boc-Lys(Tfa)-AMC were purchased from Bachem. The substrate Ac-RHK(Ac)K(Ac)-AMC was purchased from Enzo Life Sciences. Due to the different specific activities of each isoform, different amount of enzyme was used in each isoform screening assay. In these assays, trichostatin A (TSA), suberanilohydroxamic acid and diphenylacetohydroxamic acid (DPAHA) were employed as positive controls. All determinations were carried out in triplicate, and reported values were the average of these determinations, which in no case varied by more than 5%.
(§2) For evaluating the inhibition of class IIa HDACs (HDAC4, HDAC5, HDAC7 and HDAC9) and class IV HDAC (HDAC11), 10 μl of test samples were first incubated with 1 ng HDAC4 (specific activity=15400 pmol/min/μg), 5 ng HDAC5 (specific activity=2521 pmol/min/μg), 1 ng HDAC7 (specific activity=26340 pmol/min/μg), 5 ng HDAC9 (specific activity=3000 pmol/min/μg), and 500 ng HDAC11 (specific activity=1.8 pmol/min/μg) respectively. Then 25 μl of the Boc-Lys(Tfa)-AMC substrate (50 μM final concentration) was added and incubated at 37° C. for 30-60 min, and followed by adding 50 μl of developer. The last step was to read the samples in a SpectraMax M5 plate reader (Molecular Devices) at an excitation wavelength of 360 nm and an emission wavelength of 460 nm.

Recombinant human HDAC9 = biological target: T2, Recombinant human HDAC9 (Homo sapiens, UniProt Q9UKV0); assay: HDAC inhibitory assay, HDAC9 (Boc-Lys(Tfa)-AMC substrate); format: biochemical; conditions: test concentration not given; average of triplicate
T2 construct: purchased BPS Biosciences
T2 sequence (Q9UKV0 whole entry): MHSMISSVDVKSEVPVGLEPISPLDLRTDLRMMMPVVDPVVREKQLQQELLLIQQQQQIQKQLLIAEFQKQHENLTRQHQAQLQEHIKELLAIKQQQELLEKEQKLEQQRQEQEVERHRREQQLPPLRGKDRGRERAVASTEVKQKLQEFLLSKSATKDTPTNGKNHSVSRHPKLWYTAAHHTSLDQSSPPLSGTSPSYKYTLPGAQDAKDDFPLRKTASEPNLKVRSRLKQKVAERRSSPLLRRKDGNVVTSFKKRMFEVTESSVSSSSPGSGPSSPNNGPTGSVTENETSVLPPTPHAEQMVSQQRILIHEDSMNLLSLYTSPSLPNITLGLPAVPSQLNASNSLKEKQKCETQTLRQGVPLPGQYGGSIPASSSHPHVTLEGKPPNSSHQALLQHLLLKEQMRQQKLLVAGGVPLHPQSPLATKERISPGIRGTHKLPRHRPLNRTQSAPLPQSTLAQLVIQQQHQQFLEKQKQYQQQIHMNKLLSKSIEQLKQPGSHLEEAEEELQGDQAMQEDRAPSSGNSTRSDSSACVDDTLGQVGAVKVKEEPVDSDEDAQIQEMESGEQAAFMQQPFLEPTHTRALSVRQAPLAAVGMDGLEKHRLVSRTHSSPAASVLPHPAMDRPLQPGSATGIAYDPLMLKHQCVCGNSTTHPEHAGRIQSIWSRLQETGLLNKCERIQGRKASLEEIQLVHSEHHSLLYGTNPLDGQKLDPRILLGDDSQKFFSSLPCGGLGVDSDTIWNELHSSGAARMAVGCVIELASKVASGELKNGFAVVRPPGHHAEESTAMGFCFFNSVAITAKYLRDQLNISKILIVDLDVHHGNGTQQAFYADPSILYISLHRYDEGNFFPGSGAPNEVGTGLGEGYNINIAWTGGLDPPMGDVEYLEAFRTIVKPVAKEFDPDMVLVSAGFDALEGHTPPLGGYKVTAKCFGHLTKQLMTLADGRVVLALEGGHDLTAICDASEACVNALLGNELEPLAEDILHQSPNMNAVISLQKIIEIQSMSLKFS
Method: as §1, §2

Recombinant human HDAC10 = biological target: T3, Recombinant human HDAC10 (Homo sapiens, UniProt Q969S8); assay: HDAC inhibitory assay, HDAC10 (Boc-Lys(Ac)-AMC substrate); format: biochemical; conditions: test concentration not given; average of triplicate
T3 construct: purchased BPS Biosciences
T3 sequence (Q969S8 1-669): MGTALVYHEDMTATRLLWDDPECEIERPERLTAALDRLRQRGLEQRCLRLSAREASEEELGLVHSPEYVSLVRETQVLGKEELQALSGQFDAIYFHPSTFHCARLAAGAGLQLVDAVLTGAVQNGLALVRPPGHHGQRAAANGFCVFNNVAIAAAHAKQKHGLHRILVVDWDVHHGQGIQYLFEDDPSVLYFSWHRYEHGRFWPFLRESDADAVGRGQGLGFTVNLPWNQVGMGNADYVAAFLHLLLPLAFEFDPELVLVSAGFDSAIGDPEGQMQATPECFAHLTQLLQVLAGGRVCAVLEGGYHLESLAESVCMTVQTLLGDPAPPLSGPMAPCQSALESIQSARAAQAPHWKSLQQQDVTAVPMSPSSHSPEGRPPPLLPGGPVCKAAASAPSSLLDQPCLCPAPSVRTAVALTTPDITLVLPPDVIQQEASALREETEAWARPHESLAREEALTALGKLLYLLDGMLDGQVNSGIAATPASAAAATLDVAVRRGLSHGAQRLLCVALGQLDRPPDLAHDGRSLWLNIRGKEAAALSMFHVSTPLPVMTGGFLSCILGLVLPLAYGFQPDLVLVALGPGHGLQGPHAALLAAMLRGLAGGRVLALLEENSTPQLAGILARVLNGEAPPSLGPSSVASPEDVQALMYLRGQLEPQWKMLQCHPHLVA
Method: as §1
Then 25 μl of the Boc-Lys(Ac)-AMC substrate (50 μM final concentration) was added and incubated at 37° C. for 30-60 min, and followed by adding 50 μl of developer (1 mg/ml trypsin and 1 μM TSA). The last step was reading the samples in a SpectraMax M5 plate reader (Molecular Devices) at an excitation wavelength of 360 nm and an emission wavelength of 460 nm.

[1] = Cell proliferation assay (MTS, cytotoxicity); format: cell-based; conditions: human; cell line not given (MV4-11 24 hours or MCF-7 72 hours); 1 μM to 100 μM; average of triplicate
Method: The cytotoxicity of representative compounds of the invention was determined by MTS assay, following the protocol of CellTiter 96® AQueous Non-Radioactive Cell Proliferation Assay (Promega). The cells used in this assay were MV4-11 (human, macrophage, biphenotypic B myelomonocytic leukemia) and MCF-7 (human, epithelial, adenocarcinoma). […] The MV-4-11 cells were incubated with the representative compounds for 24 hours at 37° C. in 5% CO2 while the MCF-7 cells were first seeded on the 96-well plate and were allowed to attach for 1 day and then were incubated with different concentrations of the representative compound for 72 hours at 37° C. in 5% CO2. After 24 or 72 hours 20 μl of MTS reagent solution was added into each well and the cells were incubated for another 4 hours at 37° C. under 5% CO2 environment. The absorbance was measured at 490 nm in a SpectraMax M5 plate reader (Molecular Devices) to determine the cell viability. The absorbance was directly proportional to the amount of viable cells. All determinations were carried out in triplicate, and reported values in Table 2 below were the average of these determinations, which in no case varied by more than 5%.

Row | Structure (SMILES) | HDAC 11 inhibitory activity (Recombinant human HDAC11) | HDAC 9 inhibitory activity (Recombinant human HDAC9) | melting point | HDAC 10 inhibitory activity (Recombinant human HDAC10) | pIC50 [1]
1 | O=C(NC(c1ccccc1)c1ccccc1)c1coc(-c2ccccc2O)n1 [Example 2, N-Benzhydryl-2-(2-hydroxyphenyl)oxazole-4-carboxamide] | 23.1% | 33.3% | 226 to 227 °C | 47.1% | 5.12
2 | O=C(NCC(c1ccccc1)c1ccccc1)c1coc(-c2ccccc2O)n1 [Example 3, N-(2,2-Diphenylethyl)-2-(2-hydroxyphenyl)oxazole-4-carboxamide] | 39.5% | 21.6% | 206 to 208 °C | 35.7% | 4.40
3 | O=C(NCCC(c1ccccc1)c1ccccc1)c1coc(-c2ccccc2O)n1 [Example 4, N-(3,3-Diphenylpropyl)-2-(2-hydroxyphenyl)oxazole-4-carboxamide] | 45.2% | 28.2% | – | 69.8% | –
4 | O=C(NCCCCN1C(=O)c2ccccc2C1=O)c1coc(-c2ccccc2O)n1 [Example 9, N-(4-(1,3-Dioxoisoindolin-2-yl)butyl)-2-(2-hydroxyphenyl)oxazole-4-carboxamide] | 33.8% | 16.4% | – | 32.1% | –
5 | O=C(NCCCCNC(=O)C(c1ccccc1)c1ccccc1)c1coc(-c2ccccc2O)n1 [Example 10, N-(4-(2,2-Diphenylacetamido)butyl)-2-(2-hydroxyphenyl)oxazole-4-carboxamide] | 30.1% | 9.0% | – | 56.5% | –
6 | O=C(NCCCCNC(=S)NCCC(c1ccccc1)c1ccccc1)c1coc(-c2ccccc2O)n1 [Example 11, N-(4-(3-(3,3-Diphenylpropyl)thioureido)butyl)-2-(2-hydroxyphenyl)oxazole-4-carboxamide] | 69.9% | 70.2% | – | 91.2% | –
7 | O=C(NCCCCNCCC(c1ccccc1)c1ccccc1)c1coc(-c2ccccc2O)n1 [Example 12, N-(4-((3,3-Diphenylpropyl)amino)butyl)-2-(2-hydroxyphenyl)oxazole-4-carboxamide hydrochloride] | 39.1% | 16.4% | – | 26.2% | –

Continued, in another order:

Row | HDAC 11 inhibitory activity (Recombinant human HDAC11) | HDAC 9 inhibitory activity (Recombinant human HDAC9) | melting point | HDAC 10 inhibitory activity (Recombinant human HDAC10) | Structure (SMILES) | pIC50 [1]
8 | 21.8% | 20.5% | 173 to 174 °C | 48.8% | O=C(Nc1ccccc1)c1coc(-c2ccccc2O)n1 [Example 1, 2-(2-Hydroxyphenyl)-N-phenyloxazole-4-carboxamide] | 4.60
9 | 28.4% | 32.4% | 218 to 219 °C | 58.6% | O=C(Nc1ccc(-c2ccccc2)cc1)c1coc(-c2ccccc2O)n1 [Example 5, N-([1,1′-Biphenyl]-4-yl)-2-(2-hydroxyphenyl)oxazole-4-carboxamide] | –
10 | 47.8% | 20.8% | 220 to 221 °C | 48.7% | O=C(NCc1ccc(-c2ccccc2)cc1)c1coc(-c2ccccc2O)n1 [Example 6, N-([1,1′-Biphenyl]-4-ylmethyl)-2-(2-hydroxyphenyl)oxazole-4-carboxamide] | < 4.00
11 | 49.9% | 15.5% | – | 44.5% | O=C(NCc1cccc2ccccc12)c1coc(-c2ccccc2O)n1 [Example 7, 2-(2-Hydroxyphenyl)-N-(naphthalen-1-ylmethyl)oxazole-4-carboxamide] | –
12 | 26.0% | 18.4% | – | 44.8% | O=C(NCCc1c[nH]c2ccccc12)c1coc(-c2ccccc2O)n1 [Example 8, N-(2-(1H-Indol-3-yl)ethyl)-2-(2-hydroxyphenyl)oxazole-4-carboxamide] | –
13 | 49.2% | 26.3% | 248 to 251 °C | 47.2% | O=C(O)c1ccc(CNC(=O)c2coc(-c3ccccc3O)n2)cc1 [Example 14, 4-((2-(2-Hydroxyphenyl)oxazole-4-carboxamido)methyl)benzoic acid] | –
14 | 20.1% | 24.3% | – | 56.3% | O=C(Nc1ccccc1)c1ccc(CNC(=O)c2coc(-c3ccccc3O)n2)cc1 [Example 15, 2-(2-Hydroxyphenyl)-N-(4-(phenylcarbamoyl)benzyl)oxazole-4-carboxamide] | –
15 | 46.6% | 14.2% | – | 54.7% | O=C(CNC(=O)c1coc(-c2ccccc2O)n1)Nc1ccccc1 [Example 16, 2-(2-Hydroxyphenyl)-N-(2-oxo-2-(phenylamino)ethyl)oxazole-4-carboxamide] | –
